Measurements reported in patent publication US20230101743A1, “SUBSTITUTED TRIAZINE COMPOUNDS AND USES THEREOF” (MUSC FOUNDATION FOR RESEARCH DEVELOPMENT, priority 2020, published 2023).

Columns and labels:
[1] = test system: hepatic markers (ALB, AFP, HNF4α, SLC10A1, ASGR1); experiment: Hepatic marker expression (real-time qPCR, immunofluorescence); assay type: cell-based, human; details: 2 μg/mL, 24 hours
Procedure: C. Human iPSC-derived hepatocytes were treated with 2 μg/mL of DL-1 for 24 hours. (A) mRNA level of hepatic markers (ALB, AFP, HNF4α, SLC10A1, ASGR1) were determined via real-time qPCR. (B) Cells were fixed and immunofluorescence was performed to determine HNF4 and ALB level. […] Data are shown as mean SEM of […] (n=4).
For hepatic marker expression analysis, human iPSC-derived hepatocytes (Day 20) were treated with 2 μg/mL of DL-1 for 24 hours. Cells were fixed in 4% paraformaldehyde (PFA) and penetrated with 0.1% Triton-X-100. Cells were incubated with primary antibodies (ALB, 1:1000, Dako; HNF4-a, 1:1000, Santa Cruz) overnight at 4 degrees and then switched to secondary antibodies (Alexa Flour 488 goat anti-rabbit, 1:1000, Invitrogen; Alexa Flour 594 rabbit anti-mouse, 1:2000, Invitrogen). Images were taken using Bio-Rad Zoe™ Fluorescent Cell Imager (Bio-Rad). For intracellular APOB localization, iPSC-heps were treated with 0, 3, 12, 48 μg/mL of DL-9 for 24 hours, and cells were fixed in 4% PFA followed by 0.1% Triton-X-100 penetration. […] Integrated fluorescent intensity was normalized by total cell counts, which is determined by DAPI staining.
Human iPSC-derived hepatocytes (Day 20) were treated with 2 μg/mL of DL-1 for 24 hours. […] Quantitative real-time PCR was performed on a BioRad CFX384 real-time PCR machine.

[2] = Solubilities in water and 1 x PBS buffer (UV-vis); assay type: physicochemical; details: 25° C.
Procedure: The molar extinction co-efficients of exemplary cholesterol lowering compounds were measured in 1 x PBS buffer. The compounds were first dissolved in dimethyl sulfoxide. Solutions with a 0.5 mg/ml concentration were then prepared in DMSO. These solutions were diluted further with 1 x PBS by 100-fold, resulting in solutions with a 5 ug/ml concentration. The resulted diluted solutions were then measured and scanned using a UV-vis spectrophotometer for ultra-violet absorbances between 240 nm to 400 nm, using a UV 96-well microplate. The maximum UV absorbances and corresponding wavelengths were recorded (Table 1). The absorbance values were subtracted by that of a blank, 1 x PBS buffer containing […]. The volume of the solutions for UV measurements was 300 ul and the depth of the solutions was 0.7 cm. The molar extinction co-efficients were then calculated based on formula
The solubilities of the exemplary cholesterol lowering compounds were measured in water and 1 x PBS buffer. The compounds were first stirred with water and 1 x PBS buffer individually at room temperature for 1 h. The suspensions were then centrifuged for 2 min. The top clear solutions were filtered through filter paper, resulting in mother liquids, which were centrifuged again and diluted with 1 x PBS buffer for 10-fold for the solubilities in water and 100-fold the solubilities in 1 x PBS buffer. The resulted solutions were measured using a UV-vis spectrophotometer for UV absorbances with the maximum absorbances. The values were subtracted by that of a blank, 1 x PBS buffer. The corrected absorbances were then used to calculate the corresponding concentrations using the formula (1) and extinction coefficients (Table 1) shown above. The individual concentrations were then used to calculate the solubilities in 1.0 mL of water and 1 x PBS buffer.
The compounds were dissolved in DMSO to either 50 mg/ml, 10 mg/ml or 5 mg/ml solutions, which were diluted to 0.5 mg/ml with DMSO. These solutions were then diluted to 5 ug/ml with 1 x PBS buffer. The resulted solutions were then measured in a UV-vis spectrophotometer for UV scanning from 240 nm to 400 nm at 25° C. The absorbance values were subtracted by that of a blank, 1 x PBS buffer containing DMSO. The total volume of the solutions was 300 uL and the path length for each well was 0.7 cm in a UV 96-well plate. The extinction coefficients of the compounds were then calculated based on molar concentrations and the corrected UV absorbances at the maximum absorption (Table 1).
The mixtures wer stirred for 1 h at room temperature, transferred to 1.5 mL Eppendorf tubes, and centrifuged for 2 min. The clear solutions were filtered through filter papers, affording clear solutions, which were centrifuged again for 2 min. The top clear solutions were diluted by 1 x PBS buffer by 10-fold for the solubilities in water and 100-fold for the solubilities in 1 x PBS buffer. The new clear solutions were then measured individually using a UV-vis spectrophotometer and a UV 96-well microplate. The absorbance values were subtracted by that of a blank, 1 x PBS buffer. Concentrations and solubilities of the compounds were then calculated using their extinct coefficients and the corrected UV absorbances at the maximum absorptions (Table 1).

Solubility in 1.0 ml PBS buffer ([2]; 1 × PBS buffer): 25 µg | Solubility in 1.0 ml water ([2]; water): 0.37 µg
SMILES: Sc1nc(S)nc(Nc2ccc(Nc3ccccc3)cc2)n1 (racemic) [DL-1, 6-{[4-(phenylamino)phenyl]amino}-1,3,5-triazine-2,4-dithiol]
hepatic character (hepatic marker mRNA, HNF4 and ALB immunofluorescence) [1]: no impact on hepatic characters
